Reference: paper PMC12030165, “Bioactivity of Synthesized Trifluoromethyl Thioxanthone Analogues” (Pharmaceuticals, 2025)

Legend:
[1] = target: T1, porcine pancreatic α-amylase (Sus scrofa, UniProt P00690); experiment: α-Amylase inhibition assay (DNSA); assay type: biochemical
T1 construct: purchased MP Biochemicals (Illkirch, France)
T1 sequence (P00690 16-511): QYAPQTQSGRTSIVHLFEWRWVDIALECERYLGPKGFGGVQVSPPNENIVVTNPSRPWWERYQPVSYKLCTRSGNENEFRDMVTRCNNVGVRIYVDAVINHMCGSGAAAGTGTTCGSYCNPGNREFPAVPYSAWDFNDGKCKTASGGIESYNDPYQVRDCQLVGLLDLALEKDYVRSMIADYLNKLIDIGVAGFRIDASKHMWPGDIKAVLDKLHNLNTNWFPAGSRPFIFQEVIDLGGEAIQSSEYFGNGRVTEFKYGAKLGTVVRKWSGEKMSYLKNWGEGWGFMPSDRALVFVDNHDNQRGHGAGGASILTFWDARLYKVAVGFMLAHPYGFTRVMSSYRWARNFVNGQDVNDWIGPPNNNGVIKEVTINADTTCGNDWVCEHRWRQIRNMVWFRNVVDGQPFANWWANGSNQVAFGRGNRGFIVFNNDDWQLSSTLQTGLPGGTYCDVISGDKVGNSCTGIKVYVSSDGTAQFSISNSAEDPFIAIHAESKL
Description: Each product was initially dissolved in a few milliliters of 10% DMSO and then further diluted in a buffer solution (0.02 M Na2HPO4/NaH2PO4, 0.006 M NaCl, at pH 6.9) to prepare stock solutions at a concentration of 1000 µg/mL. From these stock solutions, further dilutions were made to obtain concentrations of 20, 50, and 70 µg/mL, using 10% DMSO as a diluent. A porcine pancreatic α-amylase enzyme solution was prepared at 2 units/mL concentration in 10% DMSO. For the working solutions, 0.2 mL of the enzyme solution was mixed with 0.2 mL of each product, and the mixture was incubated for 10 min at 30 °C. Following the incubation, 0.2 mL of a freshly prepared 1% starch aqueous solution was added to each working solution, which was then incubated for an additional 3 min. The reaction was halted by adding 0.2 mL of dinitrosalicylic acid (DNSA) yellow color reagent. Each working solution was diluted with 5 mL of distilled water and boiled for 10 min in a water bath at 90 °C. After cooling the mixture to room temperature, the absorbance was measured at 540 nm. The blank control was prepared similarly but replaced the product fraction with 0.2 mL of the buffer as mentioned above. Acarbose was used as the standard reference and was subjected to the same experimental procedures. The α-amylase inhibitory activity was calculated using the following equation [49]:% of α amylase inhibition = (AB − AE)/AB × 100%

[2] = target: T2, COX-2 (Homo sapiens, UniProt P35354); experiment: COX (human) Inhibitor Screening Assay, COX-2; assay type: biochemical; conditions: for COX-2 Selectivity: ratio of COX-1 and COX-2 IC50
T2 construct: purchased Cayman Chemicals 701230
T2 sequence (P35354 18-604): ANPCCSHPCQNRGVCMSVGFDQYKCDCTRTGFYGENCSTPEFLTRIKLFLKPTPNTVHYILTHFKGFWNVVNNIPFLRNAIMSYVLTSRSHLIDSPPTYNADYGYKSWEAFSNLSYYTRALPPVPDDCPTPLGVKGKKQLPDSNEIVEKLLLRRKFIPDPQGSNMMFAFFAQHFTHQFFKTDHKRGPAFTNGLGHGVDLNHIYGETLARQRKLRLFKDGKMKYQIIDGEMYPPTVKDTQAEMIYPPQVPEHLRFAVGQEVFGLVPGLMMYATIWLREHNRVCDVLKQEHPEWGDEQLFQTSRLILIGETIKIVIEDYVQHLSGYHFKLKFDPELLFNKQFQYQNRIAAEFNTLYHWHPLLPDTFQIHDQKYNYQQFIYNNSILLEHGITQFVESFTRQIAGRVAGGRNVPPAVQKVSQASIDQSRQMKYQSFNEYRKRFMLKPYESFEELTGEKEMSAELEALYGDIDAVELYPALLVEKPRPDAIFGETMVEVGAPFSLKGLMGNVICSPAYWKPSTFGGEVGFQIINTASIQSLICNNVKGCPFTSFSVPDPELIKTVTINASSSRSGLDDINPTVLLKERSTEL
Description: Our synthesized compounds’ COX-1 and COX-2 inhibitory activities were evaluated using the COX (human) Inhibitor Screening Assay Kit supplied by Cayman Chemicals (catalog no. 701230, Ann Arbor, MI, USA). The preparation of reagents and testing procedures were conducted according to the manufacturer’s recommendations. Two concentrations of the inhibitors (10 µM and 50 µM) were dissolved in a minimal amount of dimethyl sulfoxide (DMSO) and incubated with a mixture of COX-1 or COX-2 enzyme and heme in a diluted reaction buffer for 10 min at 37 °C. The reaction was initiated by adding 10 µL of arachidonic acid, followed by a two-minute incubation at 37 °C. The reaction was halted by adding 30 µL of stannous chloride solution to each reaction tube and incubating for 5 min at room temperature. The resulting PGF2α, produced by the COX reactions, was quantified using an enzyme-linked immunosorbent assay (ELISA). The 96-well plate was covered with plastic film and incubated for 18 h at room temperature on an orbital shaker. After incubation, the plate was rinsed five times with a wash buffer. Then, Ellman’s reagent (200 µL) was added, and the plate was incubated for approximately 60–90 min at room temperature until the absorbance of the blank well was in the range of 0.3–0.8 at 405 nm. The plate was read using a Unilab Microplate Reader 6000. The inhibitory percentage was calculated for each concentration tested against the control. The IC50 values were derived from the concentration-inhibition response curve, and the selectivity index (SI) was calculated by dividing the IC50 for COX-2 by the IC50 for COX-1 [52].

In the case of `OC1(c2ccccc2)c2ccccc2Sc2ccc(C(F)(F)F)cc21` (stereo not drawn) [Compound 1, 9-phenyl-2-(trifluoromethyl)-9H-thioxanthen-9-ol], the IC50 [1] is reported as 283000 nM, the IC50 [2] is reported as 27.1 ± 0.6 nM and the “COX-2 Selectivity” value [2] is reported as 1.5.
With `OC1(Cc2ccccc2)c2ccccc2Sc2ccc(C(F)(F)F)cc21` (stereo not drawn) [Compound 2, 9-benzyl-2-(trifluoromethyl)-9H-thioxanthen-9-ol] the IC50 [1] was 60200 ± 800 nM, the IC50 [2] was 74.1 ± 0.48 nM and the “COX-2 Selectivity” value [2] was 0.2.
With “S-(9-benzyl-2-(trifluoromethyl)-9H-thioxanthen-9-yl)-L-cysteine [Compound 3]” the “IC50 of the α-Amylase inhibition activity” value [1] was “no inhibitory effect”, the IC50 [2] was 25.9 ± 0.45 nM and the “COX-2 Selectivity” value [2] was 1.3.
